Test results as given in patent US20110171274A1, “Fesoterodine Substantially Free of Dehydroxy Impurity” (ACTAVIS GROUP PTC EHF, priority 2008, published 2011).
Counter-ions that a name gives are not always drawn.

Legend:
Type in all cases: physicochemical
[1] = Particle size distribution by laser diffraction (Malvern Master Sizer 2000); conditions: for Particle Size (D10) / Particle Size (D50) / Particle Size (D90): as crystallised from isopropyl alcohol / isopropyl ether
From the text: As used herein, “Particle Size Distribution (PSD)” means the cumulative volume size distribution of equivalent spherical diameters as determined by laser diffraction in Malvern Master Sizer 2000 equipment or its equivalent. “Mean particle size distribution, i.e., (D50)” correspondingly, means the median of said particle size distribution.
The important characteristics of the PSD were the (D90), which is the size, in microns, below which 90% of the particles by volume are found, and the (D50), which is the size, in microns, below which 50% of the particles by volume are found.

[2] = Solubility of fesoterodine fumarate in solvents
[3] = Storage stability (crystalline form, lack of formation of impurities); conditions: about 25±2° C., relative humidity about 60±5%
From the text: The term “remains stable”, as defined herein, refers to lack of formation of impurities, while being stored as described hereinbefore.

| SMILES | Particle Size (D10) [1] | Particle Size (D50) [1] | Particle Size (D90) [1] | further results |
| --- | --- | --- | --- | --- |
| CC(C)C(=O)Oc1ccc(CO)cc1[C@H](CCN(C(C)C)C(C)C)c1ccccc1 [Example 9, Fesoterodine Fumarate] | 4.485 μm | 31.876 μm | 110.282 μm |  |
| CC(C)C(=O)Oc1ccc(CO)cc1[C@H](CCN(C(C)C)C(C)C)c1ccccc1 [Example 10, Fesoterodine fumarate] |  |  |  | diameter of 90 volume-% of the particles (D90) ([1]; after fine-milling in a grinder for 3-4 minutes): less than 50 microns |
| CC(C)C(=O)Oc1ccc(CO)cc1[C@H](CCN(C(C)C)C(C)C)c1ccccc1 [Example 8, Fesoterodine Fumarate] | 4.518 μm | 22.291 μm | 85.415 μm |  |
| CC(C)C(=O)Oc1ccc(CO)cc1[C@H](CCN(C(C)C)C(C)C)c1ccccc1 [Fesoterodine fumarate, 2-[(1R)-3-[bis(1-methylethyl)amino]-1-phenylpropyl]-4-hydroxymethylphenyl isobutyrate] |  |  |  | solubility in aqueous solvents ([2]; aqueous solvents): freely soluble; solubility in heptane ([2]; heptane): practically insoluble; solubility in polar non protic solvents ([2]; polar non protic solvents (acetone, DMF, DMSO, acetonitrile)): soluble; solubility in polar protic organic solvents ([2]; some polar protic organic solvents (ethanol, methanol, glacial acetic acid, 2-propanol, propylene glycol)): soluble; solubility in toluene ([2]; toluene): slightly soluble; storage stability ([3]; 3 months): remains in the same crystalline form and stable; storage stability ([3]; at least one month): remains in the same crystalline form and stable |
| CC(C)C(=O)Oc1ccc(CO)cc1[C@H](CCN(C(C)C)C(C)C)c1ccccc1 [Example 7, Fesoterodine Fumarate] | 4.243 μm | 14.875 μm | 90.272 μm |  |
